The assay has as its target T1, human PAH with the R408W mutation (Homo sapiens, UniProt P00439, R408W).
T1 construct: expressed in transfected cells
T1 sequence (P00439 1-452 R408W): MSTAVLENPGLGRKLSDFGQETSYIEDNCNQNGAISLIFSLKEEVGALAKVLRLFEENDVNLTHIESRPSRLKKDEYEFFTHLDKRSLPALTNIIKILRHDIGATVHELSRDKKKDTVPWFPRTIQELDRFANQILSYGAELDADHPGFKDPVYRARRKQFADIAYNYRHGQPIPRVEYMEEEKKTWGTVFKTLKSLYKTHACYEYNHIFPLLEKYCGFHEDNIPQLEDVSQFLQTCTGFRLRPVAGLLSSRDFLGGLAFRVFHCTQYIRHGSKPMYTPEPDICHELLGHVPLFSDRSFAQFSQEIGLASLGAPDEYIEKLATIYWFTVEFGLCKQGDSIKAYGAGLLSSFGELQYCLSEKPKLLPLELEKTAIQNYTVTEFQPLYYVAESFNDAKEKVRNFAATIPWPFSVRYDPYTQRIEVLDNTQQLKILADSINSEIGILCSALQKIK
Description: Cell Based Phenylalanine Flux Assay. Set-up: scale not given here. Particulars: A375 cells expressing human R408W PAH, 24 hrs with compound, 13C-Tyrosine by LC-MS, average where tested multiple times.

Read-outs that look alike come from different tables or passages of the source.

In general, AC50 refers to the concentration giving half of the maximal activity seen. Turning to `O=C(CCc1nccs1)N1CCc2nc[nH]c2C1c1nc2cccc(Cl)c2[nH]1` (centres unmarked), the half-maximal activity concentration (AC50) (read-out: AC50) fell in the range of 1 to 5 µM. With `c1ccc2[nH]c(C3c4nc[nH]c4CCN3CCCc3nccs3)nc2c1` (centres unmarked), where the note is “read-out: AC50”, the AC50 was in the range of 1 to 5 µM.

Take `NC(=O)Cn1cc(C(=O)N2CCc3[nH]cnc3C2c2nc3c(F)cccc3s2)c(Cl)n1` (centres unmarked): the half-maximal activity concentration (AC50) entry is “E, E”. Still for that read-out and setting: as for `Fc1ccc2nc(N3CCc4[nH]cnc4C3c3nc4ccccc4s3)oc2c1` (centres unmarked), the entry is “E, E”; as for `COCCc1ccc2c(C(=O)N3CCc4[nH]cnc4C3c3nc4ccccc4s3)c(C(F)F)nn2c1` (centres unmarked), “E, E”; as for `O=C(c1c(C(F)(F)F)nn2c1CCCC2)N1CCc2[nH]cnc2C1c1nc2ccccc2s1` (centres unmarked), “E, E”. For the molecule `Cc1nc(C(F)(F)F)c(C(=O)N2CCc3nc[nH]c3C2c2nc3ccccc3s2)o1` (centres unmarked), the half-maximal activity concentration (AC50) result is on record as “E, E”. Same read-out and setting: as for `COCCc1ccc2c(C(=O)N3CCc4[nH]cnc4C3c3nc4ccccc4s3)c(C(F)(F)F)nn2c1` (centres unmarked), the entry is “E, E”; as for `NC(=O)N1CC(C(=O)N2CCc3[nH]cnc3C2c2nc3ccccc3s2)C1` (centres unmarked), “E, E”. The same measure, in the same setting: as for `CN(C)CCc1nc(C#N)c(C(=O)N2CCc3[nH]cnc3C2c2nc3ccccc3s2)o1` (centres unmarked), the entry is “E, E”. The same measure, in the same setting: with `CN1CCN(c2nc(C#N)c(C(=O)N3CCc4[nH]cnc4C3c3nc4ccccc4s3)o2)CC1` (centres unmarked) the entry was “E, E”. Regarding `O=C(c1nnc(CCCNC2CC2)o1)N1CCc2[nH]cnc2C1c1nc2ccccc2s1` (centres unmarked), the AC50 entry is listed as “E, E”. As for `O=C(c1cnc[nH]1)N1CCc2[nH]cnc2C1c1nc2ccccc2[nH]1` (centres unmarked), the AC50 (read-out: AC50) is more than 5 µM. On the same count and under the same terms, with `O=C(c1cn[nH]c1)N1CCc2[nH]cnc2C1c1nc2ccccc2[nH]1` (centres unmarked) the figure was more than 5 µM. Same read-out and setting: as for `O=C(c1nc2ccccc2s1)N1CCc2[nH]cnc2C1c1nc2ccccc2[nH]1` (centres unmarked), the figure is 1 to 5 µM.

Turning to `Cc1nnc(C(=O)N2CCc3[nH]cnc3C2c2nc3ccccc3[nH]2)s1` (centres unmarked), under “read-out: AC50”, the AC50 is 1 to 5 µM.

Regarding `O=C(c1nc2ccncc2s1)N1CCc2[nH]cnc2C1c1nc2ccccc2[nH]1` (centres unmarked), the half-maximal activity concentration (AC50) (read-out: AC50) was more than 5 µM. The same measure, in the same setting: with `O=C(c1cc[nH]n1)N1CCc2[nH]cnc2C1c1nc2ccccc2[nH]1` (centres unmarked) the figure was 1 to 5 µM; with `O=C(c1ncn2ccccc12)N1CCc2[nH]cnc2C1c1nc2ccccc2[nH]1` (centres unmarked), more than 5 µM. For `O=C(c1ccc2ncsc2c1)N1CCc2[nH]cnc2C1c1nc2ccccc2[nH]1` (centres unmarked), the AC50 (read-out: AC50) lay within 1 to 5 µM. On the same count and under the same terms, with `O=C(c1ncc[nH]1)N1CCc2[nH]cnc2C1c1nc2ccccc2[nH]1` (centres unmarked) the figure was 1 to 5 µM; with `O=C(c1ccc(F)cc1)N1CCc2[nH]cnc2C1c1nc2ccccc2[nH]1` (centres unmarked), 1 to 5 µM; with `O=C(c1cnn2cc(Cl)ccc12)N1CCc2[nH]cnc2C1c1nc2ccccc2[nH]1` (centres unmarked), 1 to 5 µM. Take `O=C(c1ocnc1C(F)F)N1CCc2[nH]cnc2C1c1nc2ccccc2[nH]1` (centres unmarked): the AC50 result is listed as “E, E”. On the same count and under the same terms, with `CC(C)(O)c1nc(C(F)F)c(C(=O)N2CCc3[nH]cnc3C2c2nc3ccccc3[nH]2)o1` (centres unmarked) the entry was “E, E”. Take `O=C(c1cnn2cc(Br)ccc12)N1CCc2[nH]cnc2C1c1nc2ccc(Br)cc2[nH]1` (centres unmarked): for the setting “read-out: AC50”, the concentration at half-maximal activity (AC50) lay in the range of 1 to 5 µM. For `O=C(c1cnn2cccc(F)c12)N1CCc2[nH]cnc2C1c1nc2ccc(Cl)cc2[nH]1` (centres unmarked), for the setting “read-out: AC50”, the AC50 was more than 5 µM. Same read-out and setting: as for `O=C(c1nccs1)N1CCc2[nH]cnc2C1c1nc2ccc(Cl)cc2[nH]1` (centres unmarked), the figure is 1 to 5 µM; as for `O=C(c1cncs1)N1CCc2[nH]cnc2C1c1nc2ccc(Cl)cc2[nH]1` (centres unmarked), 1 to 5 µM; as for `O=C(c1ncc(Cl)s1)N1CCc2[nH]cnc2C1c1nc2ccc(Cl)cc2[nH]1` (centres unmarked), more than 5 µM. Regarding `O=C(c1oc(-c2ccccn2)nc1C(F)(F)F)N1CCc2[nH]cnc2C1c1nc2ccccc2s1` (centres unmarked), the AC50 entry is listed as “E, E”.

Take `CC(C)(O)CCc1nc(C(F)(F)F)c(C(=O)N2CCc3[nH]cnc3C2c2nc3ccccc3s2)o1` (centres unmarked): the AC50 result is recorded as “E, E”. Same read-out and setting: as for `O=C(c1c(C(F)F)nn2cc(Br)ccc12)N1CCc2[nH]cnc2C1c1nc2ccccc2s1` (centres unmarked), the entry is “E, E”; as for `CN(C)Cc1nc(C(F)(F)F)c(C(=O)N2CCc3[nH]cnc3C2c2nc3ccccc3s2)o1` (centres unmarked), “E, E”. Same read-out and setting: with `Cn1cc(-c2nc(C(F)(F)F)c(C(=O)N3CCc4[nH]cnc4C3c3nc4ccccc4s3)o2)cn1` (centres unmarked) the entry was “E, E”; with `COCc1ccc2c(C(=O)N3CCc4[nH]cnc4C3c3nc4ccccc4s3)c(C(F)F)nn2c1` (centres unmarked), “E, E”. With `O=C(C=Cc1ccccc1)N1CCc2[nH]cnc2C1c1nc2ccccc2[nH]1` (centres unmarked), the AC50 (read-out: AC50) was 1 to 5 µM.

Consider `COc1cccc(C=CC(=O)N2CCc3[nH]cnc3C2c2nc3ccccc3[nH]2)c1` (centres unmarked), for which the AC50 (read-out: AC50) is 1 to 5 µM. For `O=C(c1nc2ccccc2s1)N1CCc2[nH]cnc2C1c1nc2ccc(Br)cc2[nH]1` (centres unmarked), under “read-out: AC50”, the AC50 lay in the range of 1 to 5 µM. Still for that read-out and setting: as for `O=C(c1nc2ccccc2s1)N1CCc2[nH]cnc2C1c1nc2ccc(Cl)cc2[nH]1` (centres unmarked), the figure is 1 to 5 µM. Same read-out and setting: with `O=C(C1CC1)N1CCc2[nH]cnc2C1c1nc2ccc(F)cc2[nH]1` (centres unmarked) the figure was 1 to 5 µM.
